Holding throughout (type): biochemical
The target in one experiment is T1, DYRK1A (Homo sapiens, UniProt Q13627).
T1 construct: purchased Carna Biosciences, Inc. 04-130
The experiment is described as follows: Inhibition test on activity of DYRK family, mobility shift assay (MSA), DYRK1A. The settings on record: ATP 100 μM, FITC-labeled DYRKtide peptide substrate, room temperature 1 hour. How it is done: (§1) [Inhibition Test on Activity of DYRK Family (DYRK1A, DYRK1B, DYRK2, and […])]
(§2) (Method for Measuring Kinase Activity)
(§3) The kinase activity was measured by mobility shift assay (MSA) method using QuickScout Screening Assist™ MSA (commercially available kit manufactured by Carna Biosciences, Inc.). The substrate of the kinase reaction used was an FITC-labeled DYRKtide peptide included in the kit. An assay buffer [20 mM HEPES, 0.01% Triton X-100™, 2 mM dithiothreitol, pH 7.5] was used to create a substrate mixture solution with a substrate (4 μM), MgCl2 (20 mM), and ATP (DYRK1A: 100 μM; DYRK1B: 200 μM; DYRK2: 40 μM; and DYRK3: 20 μM). In addition, kinases (DYRK1A: manufactured by Carna Biosciences, Inc., Cat. No. 04-130; DYRK1B: manufactured by Carna Biosciences, Inc., Cat. No. 04-131; DYRK2; manufactured by Carna Biosciences, Inc., Cat. No. 04-132; and DYRK3; manufactured by Carna Biosciences, Inc., Cat. No. 04-133) were diluted with the assay buffer to prepare enzyme solutions (DYRK1A: 0.2 ng/μL; DYRK1B: 0.08 ng/μL; DYRK2: 0.04 ng/μL; and DYRK3: 0.25 ng/μL). The 10 mM solution of the test compound in DMSO was further diluted with DMSO to 10 levels of the concentration (0.00003 mM, 0.0001 mM, 0.0003 mM, 0.001 mM, 0.003 mM, 0.01 mM, 0.03 mM, 0.1 mM, 0.3 mM, and 1 mM), each of which was subjected to 25-fold dilution with the assay buffer to obtain a drug solution (4% DMSO solution). 5 μL of the drug solution or a control solution (4% DMSO-assay buffer), 5 μL of the substrate mixture solution, and 10 μL of the enzyme solution were mixed in the wells of a polypropylene 384-well plate and allowed to react at room temperature for 1 hour, and then the reaction was quenched by adding 60 μL of the termination buffer included in the kit. Subsequently, the quantities of the substrates (S) and the phosphorylated substrate (P) in the reaction solution were measured using LabChip EZ Reader II system (manufactured by Caliper Life Sciences) according to the protocol of the assay kit.
(§4) (Method for Evaluating Inhibitory Activity)
(§5) The heights of the peaks of the “substrate” and the “phosphorylated substrate” were expressed as S and P, respectively, and a blank containing the assay buffer instead of the enzyme solution was also measured.
(§6) The inhibition rate (%) of the test compound was calculated according to the following equation:
(§7) Inhibition rate (%)=(1−(C−A)/(B−A))×100
(§8) wherein, A, B, and C represent P/(P+S) of the blank well, P/(P+S) of the control solution well, and P/(P+S) of the compound-containing well, respectively.
(§9) The IC50 value was calculated via a regression analysis of the inhibition rate and the test compound concentration (logarithmic value).
(§10) The inhibiting activities of representative compounds of the present invention are shown against DYRK1A, DYRK1B, DYRK2, and DYRK3 in Tables 7 and 8. The kinase activity inhibitory effect was indicated with the mark *** at an IC50 value of less than 0.01 μM; the mark ** at 0.01 μM or more and less than 0.1 μM; the mark * at 0.1 μM or more and less than 1 μM; and the mark — at 1 μM or more (N.D. indicates not measured).

The next experiment has as its target T2, DYRK2 (Homo sapiens, UniProt Q92630).
T2 construct: purchased Carna Biosciences, Inc. 04-132
T2 sequence (Q92630 1-601): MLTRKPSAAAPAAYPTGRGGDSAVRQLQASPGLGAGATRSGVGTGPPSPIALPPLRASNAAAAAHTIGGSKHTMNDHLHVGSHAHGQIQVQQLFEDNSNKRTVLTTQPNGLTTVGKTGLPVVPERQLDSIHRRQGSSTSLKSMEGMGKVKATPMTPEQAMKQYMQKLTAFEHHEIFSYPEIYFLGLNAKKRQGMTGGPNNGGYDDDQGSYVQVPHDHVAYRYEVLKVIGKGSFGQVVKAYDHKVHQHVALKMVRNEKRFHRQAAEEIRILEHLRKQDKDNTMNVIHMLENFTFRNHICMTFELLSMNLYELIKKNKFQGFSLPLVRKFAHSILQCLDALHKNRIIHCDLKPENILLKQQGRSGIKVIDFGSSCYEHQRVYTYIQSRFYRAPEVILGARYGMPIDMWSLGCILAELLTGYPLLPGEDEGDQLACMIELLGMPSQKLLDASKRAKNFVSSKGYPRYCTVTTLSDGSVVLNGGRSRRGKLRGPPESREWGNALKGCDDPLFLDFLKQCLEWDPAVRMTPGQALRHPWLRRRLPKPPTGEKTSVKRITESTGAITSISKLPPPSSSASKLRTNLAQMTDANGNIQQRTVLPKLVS
Nature of the experiment: Inhibition test on activity of DYRK family, mobility shift assay (MSA), DYRK2. The settings on record: ATP 40 μM, FITC-labeled DYRKtide peptide substrate, room temperature 1 hour; for IC50: read-out: Inhibitory Activity 2 (IC50 against DYRK2). The protocol: as §1, §2, §3, §4, §5, §6, §7, §8, §9, §10

The next experiment has as its target T3, DYRK3 (Homo sapiens, UniProt O43781).
T3 construct: purchased Carna Biosciences, Inc. 04-133
T3 sequence (O43781 1-588): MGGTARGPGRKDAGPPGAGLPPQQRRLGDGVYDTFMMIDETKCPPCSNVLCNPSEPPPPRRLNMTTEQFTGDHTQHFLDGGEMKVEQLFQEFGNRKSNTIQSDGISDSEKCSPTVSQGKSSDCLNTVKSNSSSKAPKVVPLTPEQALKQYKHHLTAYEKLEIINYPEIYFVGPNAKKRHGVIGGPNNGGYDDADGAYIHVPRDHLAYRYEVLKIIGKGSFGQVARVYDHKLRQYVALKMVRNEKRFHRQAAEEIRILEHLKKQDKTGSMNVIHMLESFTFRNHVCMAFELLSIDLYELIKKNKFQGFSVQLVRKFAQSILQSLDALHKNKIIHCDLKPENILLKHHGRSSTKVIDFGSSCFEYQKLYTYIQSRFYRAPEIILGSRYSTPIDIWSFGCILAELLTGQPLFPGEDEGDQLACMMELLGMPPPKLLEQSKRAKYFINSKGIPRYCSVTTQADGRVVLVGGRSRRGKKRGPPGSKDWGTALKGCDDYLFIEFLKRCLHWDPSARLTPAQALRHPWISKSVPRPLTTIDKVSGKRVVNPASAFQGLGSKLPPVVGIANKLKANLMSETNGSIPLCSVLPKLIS
Nature of the experiment: Inhibition test on activity of DYRK family, mobility shift assay (MSA), DYRK3. The settings on record: ATP 20 μM, FITC-labeled DYRKtide peptide substrate, room temperature 1 hour; for IC50: read-out: Inhibitory Activity 3 (IC50 against DYRK3). The protocol:
as §1, §2, §3, §4, §5, §6, §7, §8, §9, §10

The results in this text go back to patent US20230138851A1, “NOVEL ALKYNE DERIVATIVES” (CARNA BIOSCIENCES, INC., priority 2020, published 2023).

On to `C#CC1CNC(=O)N1c1nc2c3c(ccc2s1)OCC3` (single isomer, unassigned) [Example 13, 1-(7,8-dihydrobenzofuro[4,5-d]thiazol-2-yl)-5-ethynylimidazolidin-2-one], for which the “Inhibitory Activity 1a (IC50 against DYRK1A)” value (shortened to “Inhibitory Activity 1a”) on DYRK1A was “* * *”. For the same compound, the “Inhibitory Activity 2 (IC50 against DYRK2)” value at DYRK2 is listed as “* *”. In addition, the “Inhibitory Activity 3 (IC50 against DYRK3)” value on DYRK3 is listed as “* *”.

As usually defined, the IC50 is the concentration needed to halve the response being measured. As for `CC#CC1CNC(=O)N1c1nc2c(ccc3nc[nH]c32)s1` (racemic) [Example 35, (RS)-1-(8H-imidazo[4′,5′:5,6]benz[1,2-d]thiazol-2-yl)-5-(prop-1-yn-1-yl)imidazolidin-2-one], the “Inhibitory Activity 1a” value at DYRK1A is recorded as “** *”. The IC50 at DYRK2 and at DYRK3 was 100 to 1000 nM throughout.

Regarding `CC#C[C@H]1[C@H](C)NC(=O)N1c1nc2c3c(ccc2s1)OCC3` [Example 4, (4S,5S)-1-(7,8-dihydrobenzofuro[4,5-d]thiazol-2-yl)-4-methyl-5-(prop-1-yn-1-yl)imidazolidin-2-one], the IC50 on DYRK1A (read-out: Inhibitory Activity 1a (IC50 against DYRK1A)), on DYRK2 and on DYRK3 was at least 1000 nM in each case.

For the compound `CC#C[C@H]1[C@H](CO)NC(=O)N1c1nc2c3c(ccc2s1)OCC3` (relative stereo) [Example 61, trans-1-(7,8-dihydrobenzofuro[4,5-d]thiazol-2-yl)-4-(hydroxymethyl)-5-(prop-1-yn-1-yl)imidazolidin-2-one], at DYRK1A, the “Inhibitory Activity 1a” value is listed as “* * *”. The IC50 on DYRK2 and on DYRK3 was 100 to 1000 nM throughout.

On to `CC#C[C@H]1[C@H](CN(C)C)NC(=O)N1c1nc2c3c(ccc2s1)OCC3` (single isomer, unassigned) [Example 69, trans-1-(7,8-dihydrobenzofuro[4,5-d]thiazol-2-yl)-4-[(dimethylamino)methyl]-5-(prop-1-yn-1-yl)imidazolidin-2-one], for which the “Inhibitory Activity 1a” value at DYRK1A is given as “* *”. Moreover, the half-inhibitory concentration (IC50) was at least 1000 nM on DYRK2 and 100 to 1000 nM at DYRK3.

For `CC#C[C@H]1[C@H](COC)NC(=O)N1c1nc2c3c(ccc2s1)OCC3` (single isomer, unassigned) [Example 77, trans-1-(7,8-dihydrobenzofuro[4,5-d]thiazol-2-yl)-4-(methoxymethyl)-5-(prop-1-yn-1-yl)imidazolidin-2-one], at DYRK1A, the “Inhibitory Activity 1a” value is on record as “* *”. In addition, the 50% inhibitory concentration (IC50) at DYRK2 and on DYRK3 was at least 1000 nM throughout.

With `CC#CC1CNC(=O)N1c1nc2c(ccc3ncn(CC(C)(C)O)c32)s1` (racemic) [Example 37, (RS)-1-[8-(2-hydroxy-2-methylpropyl)-8H-imidazo[4′,5′;5,6]benz[1,2-d]thiazol-2-yl]-5-(prop-1-yn-1-yl)imidazolidin-2-one], the “Inhibitory Activity 1a” value on DYRK1A is recorded as “* *”. The half-maximal inhibitory concentration (IC50) at DYRK2 was in the range of 100 to 1000 nM. Besides, the “Inhibitory Activity 3 (IC50 against DYRK3)” value at DYRK3 is given as “* *”.

As for `CC#C[C@@H]1[C@H]([C@H](C)O)NC(=O)N1c1nc2c3c(ccc2s1)OCC3` [Example 84, (4R,5R)-1-(7,8-dihydrobenzofuro[4,5-d]thiazol-2-yl)-4-((S)-1-hydroxyethyl)-5-(prop-1-yn-1-yl)imidazolidin-2-one], the “Inhibitory Activity 1a” value at DYRK1A is reported as “* * *”. For the same compound, the IC50 at DYRK2 and on DYRK3 was 100 to 1000 nM throughout.

For the compound `CC#C[C@@H]1[C@H]([C@@H](C)O)NC(=O)N1c1nc2c3c(ccc2s1)OCC3` [Example 82, (4R,5R)-1-(7,8-dihydrobenzofuro[4,5-d]thiazol-2-yl)-4-((R)-1-hydroxyethyl)-5-(prop-1-yn-1-yl)imidazolidin-2-one], the “Inhibitory Activity 1a” value on DYRK1A is on record as “* * *”. The IC50 at DYRK2 was in the range of 100 to 1000 nM. The “Inhibitory Activity 3 (IC50 against DYRK3)” value at DYRK3 is given as “* *”.

For `CC#CC1CNC(=O)N1c1nc2c(ccc3ncccc32)s1` (single isomer, unassigned) [Example 34, 5-(prop-1-yn-1-yl)-1-(thiazolo[4,5-f]quinolin-2-yl)imidazolidin-2-one], the “Inhibitory Activity 1a” value at DYRK1A is recorded as “* * *”. In addition, the “Inhibitory Activity 2 (IC50 against DYRK2)” value at DYRK2 was “* *”. Moreover, the “Inhibitory Activity 3 (IC50 against DYRK3)” value at DYRK3 is listed as “* *”.

Consider `CC#C[C@@H]1[C@H](COC)NC(=O)N1c1nc2c3c(ccc2s1)OCC3` (single isomer, unassigned) [Example 74, cis-1-(7,8-dihydrobenzofuro[4,5-d]thiazol-2-yl)-4-(methoxymethyl)-5-(prop-1-yn-1-yl)imidazolidin-2-one], for which the “Inhibitory Activity 1a” value on DYRK1A is “* * *”. Further, the half-maximal inhibitory concentration (IC50) at DYRK2 and on DYRK3 was 100 to 1000 nM each time.

Consider `O=C1NCC(C#CCO)N1c1nc2c3c(ccc2s1)OCC3` (racemic) [Example 19, (RS)-1-(7,8-dihydrobenzofuro[4,5-d]thiazol-2-yl)-5-(3-hydroxyprop-1-yn-1-yl)imidazolidin-2-one], for which, at DYRK1A, the “Inhibitory Activity 1a” value is recorded as “* * *”. The IC50 at DYRK2 and at DYRK3 was 100 to 1000 nM in each case.

`CC(C)(O)C#CC1CNC(=O)N1c1nc2c3c(ccc2s1)OCC3` (racemic) [Example 22, (RS)-1-(7,8-dihydrobenzofuro[4,5-d]thiazol-2-yl)-5-(3-hydroxy-3-methylbut-1-yn-1-yl)imidazolidin-2-one]: on DYRK1A, the “Inhibitory Activity 1a” value was “* *”. The concentration for half-maximal inhibition (IC50) on DYRK2 and on DYRK3 was at least 1000 nM in each case.
